Data on two compounds can be found in US6982148B2, “Progressive elevated gene-3 (PEG-3) induces aggressive cancer phenotype and regulates angiogenesis” (The Trustees of Columbia University in the City of New York, priority 1999, dated 2006).

Structures are written as SMILES.

The subject of one assay is PEG-3. Briefly: PEG-3 mRNA and transcription after DNA damage. Type of assay: cell-based, rat. As to conditions: following DNA damage. From the text: The specific role of the gadd34/MyD116 gene in cellular physiology is not known. Like hamster gadd34 and its murine homologue MyD116, PEG-3 steady-state mRNA and RNA transcriptional levels are increased following DNA damage by methyl methanesulfonate (MMS) and gamma irradiation (γIR) (FIGS. 2 and 5 and data not shown). In contrast, nuclear run-on assays indicate that only the PEG-3 gene is transcriptionally active (transcribed) as a function of transformation progression (FIG. 5). This is apparent in CREF cells transformed by Ha-ras and in E11-NMT and various E11-NMT subclones either expressing or not expressing the progression phenotype (FIG. 5). The gadd34/MyD116 gene, as well as the gadd45, MyD118 and gadd153 genes, encode acidic proteins with very similar and unusual charge characteristics (24). PEG-3 also encodes a putative protein with acidic properties similar to the gadd and MyD genes (FIG. 3). The carboxyl-terminal domain of the murine MyD116 protein is homologous to the corresponding domain of the herpes simplex virus 1 γ134.5 protein, that prevents the premature shutoff of total protein synthesis in infected human cells (35,36). Replacement of the carboxyl-terminal domain of γ134.5 with the homologous region from MyD116 results in a restoration of function to the herpes viral genome, i.e., prevention of early host shutoff of protein synthesis (36). […]

A further assay relates to VEGF. The experiment in a line: VEGF transcription and steady-state mRNA in E11 cells after transient PEG-3 transfection. Type of assay: cell-based, rat. Particulars: added 4 hr after PEG-3 transfection of E11 cells. The procedure:
Transfection of PEG-3 into E11 cells induces steady-state VEGF mRNA. E11 cells were transfected with a pZeoSV/PEG-3 or pZeo SV vector, 4 hr later replicate cultures received cycloheximide and 30 hr later total RNA was extracted and analyzed by Northern blotting for PEG-3, VEGF, Ad5 ElA and GAPDH mRNA expression.
Nucleic Acid Analyses. Steady-state levels of PEG-3, VEGF, ElA, and GAPHD mRNA were determined by Northern analysis of total cytoplasmic RNA using appropriate multiprimed ^32P-labeled cloned cDNA probes as described previously (18,19). Briefly, 10 μg of total RNA from the different cell types were electrophoresed in a 1% agarose gel, transferred to a nylon membrane and hybridized with the different ^32p-labeled CDNA fragments. The membrane was stripped and hybridized with indicated probes sequentially. […]
To examine further the relationship between PEG-3 and VEGF, experiments were performed to determined if transient ectopic expression of PEG-3 in rodent and human tumor cells could elevate VEGF expression. E11 cells were transfected with a PEG-3 expression construct, nuclei were isolated and evaluated for elevated VEGF transcription and total cytoplasmic RNA was isolated and steady-state VEGF mRNA levels were determined by Northern blotting (FIG. 8 and data not shown). […]

For the compound `COS(C)(=O)=O` [MMS, methyl methanesulfonate], the “PEG-3 steady-state mRNA and RNA transcriptional levels” value in the assay with PEG-3 was “increased”. Regarding `C[C@@H]1C[C@@H]([C@H](O)CC2CC(=O)NC(=O)C2)C(=O)[C@@H](C)C1` [cycloheximide], the “Effect on PEG-3 induced elevation of VEGF transcription and RNA” value in the assay with VEGF was “prevented”.
